In brackets after ≈: the same amount, converted by molar mass. Like-named read-outs stand apart in the source and are kept apart here.
Tests used:
physchem [1] = conditions: pH 7.4, log D n-Octanol-Dulbecco's PBS pH 7.4
[2] = tested on: NRK-52E, normal rat kidney cells; conditions: 24 h
[3] = tested on: L8, normal rat skeletal muscle cells; conditions: 24 h
Description: In order to assess the cytotoxicity of the drugs to normal cells, we used 96 well plates plated at a density of 5000 cells per well (except for the FDC-P1 which were plated at 12,000 cells per well) with normal cell lines (ATCC, Table 1) maintained as per the directions of the ATCC: AML-12, normal mouse liver cells; NRK-52E, normal rat kidney cells; L8, normal rat skeletal muscle cells; FDC-P1, normal mouse myelogeous stem cells; and H9c2 (2-1), normal rat cardiac muscle cells. The cells in each plate were permitted to settle overnight before adding the test drug.
To each well (100 μl medium) 10 μl of drug in media was added at varying concentrations (1×10-10-0.01 mg/ml final concentration) and further incubated overnight at 37° C. with 5% CO2. After 24 h the following assays were performed. All experiments were repeated at least 3 times and were assayed in duplicate.
MTS assay (CellTiter 96 aqueous) was performed according to the manufacturer's (Promega) directions (for all cell types). Cell viability (mitochondrial activity) is determined via enzymatic conversion of the formazan substrate.

physchem [4] = conditions: pH 7.4, aqueous buffer, Solubility Dulbecco's PBS pH 7.4
[5] = tested on: FDC-P1, normal mouse myelogeous stem cells; conditions: 24 h
CYP3A4 = CYP3A4 (Homo sapiens, UniProt P08684); experiment: in vitro; conditions: CYP3A4 (% inhibition)
Description: For CYP3A4 inhibition assay, the compound were tested at 10 μM in duplicate with a 0.25% final concentration of both methanol and acetonitrile in presence of the fluorescent substrate BFC (50 μM). The conversion of the BFC (7-benzyloxy-4-trifluoromethylcoumarin) in HFC (7-hydroxy-4-trifluoromethylcoumarin) was determined spectro-fluormetry after incubation with the enzyme during 30 min at 37° C.
(§2) For both assays, the fluorescent intensity measured at t=0 is subtracted from that measured after the appropriate incubation time. The ratio of signal-to-noise is calculated by comparing the fluorescence in incubations containing the test compound to the control samples containing the same solvent vehicle. The percent of control activity is calculated and reported as percent inhibition.

[6] = tested on: AML-12, normal mouse liver cells; conditions: 24 h
[7] = tested on: H9c2 (2-1), normal rat cardiac muscle cells; conditions: 24 h
[8] = s9, 60 min, 1 μM
CYP2D6 = CYP2D6 (Homo sapiens, UniProt P10635); experiment: in vitro; conditions: CYP2D6 (% inhibition)
Description: For CYP2D6 inhibition assay, the compound are tested at 10 μM in duplicate with a 0.25% final concentration of both methanol and acetonitrile in presence of the fluorescent substrate AMMC (3-[2-N,N-diethyl-N-methylammonium)ethyl]-7-methoxy-4-methylcoumarin) at the concentration of 1.5 μM). The conversion of the AMMC in AHMC (3-[2-N,N-diethyl-N-methylammonium)ethyl]-7-hydroxy-4-methylcoumarin) is determined spectrofluorimetry after incubation with the enzyme during 450 min at 37° C.
as §2

HT29 = experiment: cells; type: cell-based; conditions: Homo sapiens, HT-29, 48 h; for GI50 / IC (TGI): HT29, 48 hours exposure, SRB; for CC50: read-out: LC50, HT29, 48 hours exposure, SRB
Outline: (§1)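 Human tumour cells seeded at 5×10^3 per well in RPMI 1640 10% FBS, attached 18 h, then exposed 48 h to samples from 10 to 10^−8 μg/ml in DMSO/EtOH/PBS. Growth measured by SRB staining after TCA fixation, OD 490 nm, triplicate wells; GI, TGI and LC derived.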

SW-620 = experiment: cells; type: cell-based; conditions: Homo sapiens; for CC50: SW-620, 48 h, read-out: LC50; for IC (TGI) / GI50: SW-620, 48 hours exposure, SRB; for GI50: read-out: GI50
Outline: as §1

MEL-28 = experiment: cells; type: cell-based; conditions: Homo sapiens, SK-MEL-28, 48 h; for GI50 / IC (TGI): MEL-28, 48 hours exposure, SRB; for CC50: read-out: LC50, MEL-28, 48 hours exposure, SRB
Outline: as §1

MB231 = experiment: cells; type: cell-based; conditions: Homo sapiens; for CC50: read-out: LC50; for IC (TGI): read-out: TGI
Outline: as §1

A498 = experiment: cells; type: cell-based; conditions: Homo sapiens; for CC50: A498, 48 h, read-out: LC50; for GI50 / IC (TGI): A498, 48 hours exposure, SRB
Outline: as §1

DU145 = experiment: cells; type: cell-based; conditions: Homo sapiens, DU-145, 48 h; for GI50 / IC (TGI): DU145, 48 hours exposure, SRB; for CC50: read-out: LC50, DU145, 48 hours exposure, SRB
Outline: as §1

MCF = experiment: cells; type: cell-based; conditions: Homo sapiens; for CC50: read-out: LC50; for IC (TGI): read-out: TGI
Outline: as §1

A549 = experiment: cells; type: cell-based; conditions: Homo sapiens, A549, 48 h; for IC (TGI): read-out: TGI; for CC50: read-out: LC50, A549, 48 hours exposure, SRB
Outline: as §1

in vitro = conditions: human, Caco-2
Excerpt: The intestinal epithelium permeability is a critical characteristic that determines the rate and extent of human absorption and ultimately the bioavailability of a drug candidate. Caco-2 permeability assay allows a rapid assessment of membrane permeability and thus helps to rank-order compounds in terms of their absorption potential.
The Caco-2 cell line is a human colon adenocarcinoma cell line that differentiates in culture and resembles the epithelial lining of the human small intestine.
The apparent permeability coefficients (Papp) was determined in the apical-to-basolateral (A-to-B) direction across the cell monolayers (TC-7 sub-clone of the Caco-2) cultured on polycarbonate membrane filters. Compounds were tested at 50 μM with at a final DMSO concentration of 1%. Samples were analyzed by HPLC-MS or HPLC-MS/MS.
The test compound was added to the apical side and the Papp was determined based on the rate of appearance of the test compound in the basolateral side after 2 h-incubation. Two reference compounds, propranolol (highly permeable) and ranitidine (poorly permeable), are tested in each assay as controls.

(HEPG2) = conditions: human, 24 h, 30 μM
[9] = A549, 48 hours exposure, SRB, read-out: GI50

CYP3A4, sequence (P08684 whole entry): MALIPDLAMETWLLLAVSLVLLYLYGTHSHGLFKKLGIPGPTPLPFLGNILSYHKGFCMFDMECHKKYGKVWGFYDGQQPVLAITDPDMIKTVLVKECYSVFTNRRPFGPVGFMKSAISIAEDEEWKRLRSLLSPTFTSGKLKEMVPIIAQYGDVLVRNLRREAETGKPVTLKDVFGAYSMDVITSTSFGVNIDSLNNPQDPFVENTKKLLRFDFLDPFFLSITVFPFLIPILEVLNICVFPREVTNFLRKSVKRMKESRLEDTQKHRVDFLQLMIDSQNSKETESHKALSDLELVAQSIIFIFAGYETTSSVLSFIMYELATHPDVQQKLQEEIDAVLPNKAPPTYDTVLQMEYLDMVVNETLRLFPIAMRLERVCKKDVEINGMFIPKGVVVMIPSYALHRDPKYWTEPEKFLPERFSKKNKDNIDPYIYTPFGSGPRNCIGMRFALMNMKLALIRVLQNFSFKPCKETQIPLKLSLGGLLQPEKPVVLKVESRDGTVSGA
CYP2D6, sequence (P10635 whole entry): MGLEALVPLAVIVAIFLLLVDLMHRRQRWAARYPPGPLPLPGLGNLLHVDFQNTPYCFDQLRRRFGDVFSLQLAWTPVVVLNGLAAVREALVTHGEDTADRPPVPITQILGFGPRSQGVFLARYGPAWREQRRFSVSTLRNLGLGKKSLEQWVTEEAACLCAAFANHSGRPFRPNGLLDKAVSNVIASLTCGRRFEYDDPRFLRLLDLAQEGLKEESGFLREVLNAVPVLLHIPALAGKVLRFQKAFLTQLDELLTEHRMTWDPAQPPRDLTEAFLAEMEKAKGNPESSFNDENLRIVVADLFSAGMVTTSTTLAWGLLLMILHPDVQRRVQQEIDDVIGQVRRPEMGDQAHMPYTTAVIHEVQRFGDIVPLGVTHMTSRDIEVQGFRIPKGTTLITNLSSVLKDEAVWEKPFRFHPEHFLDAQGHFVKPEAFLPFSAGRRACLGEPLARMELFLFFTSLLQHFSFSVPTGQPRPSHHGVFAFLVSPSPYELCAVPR

Row | Compound | logD at 60 min (physchem [1]) | Kidney [2] | Skeletal [3] | solubility (physchem [4]) [µM] | Myelo [5] | inhibition at 30 min, 10 µM (CYP3A4) [%] | Liver [6] | Heart [7] | Human Liver S9 Metabolic Stability (% remaining) [8] [% remaining] | GI50 (HT29) [nM] | IC (TGI) (HT29) [nM] | CC50 (HT29) [nM] | CC50 (SW-620) [nM] | IC (TGI) (SW-620) [nM] | GI50 (SW-620) [nM] | GI50 (MEL-28) [nM] | IC (TGI) (MEL-28) [nM] | CC50 (MEL-28) [nM] | CC50 (MB231; 48 h) [nM] | GI50 (MB231; MB231, 48 hours exposure, SRB) [nM] | further results
1 | COc1ccc2[nH]c3c(c2c1)CCN[C@]31CS[C@@H]2c3c(OC(C)=O)c(C)c4c(c3[C@H](COCC1=O)N1C2[C@H]2c3c(cc(C)c(OC)c3O)C[C@@H]([C@@H]1O)N2C)OCO4 (stereo partly shown) [Compound 27] | > 5 | 1.01E−08 | 1.54E−08 | 2.99 (≈ 2.39 µg/mL) | 1.75E−08 | 53 | 1.48E−08 | 9.93E−08 | 7 | 0.255 | 0.764 | 1.15 | 1.15 | 0.637 | 0.255 | 0.255 | 0.637 | 1.27 | 12.7 | 0.255 | inhibition at 450 min, 10 µM (CYP2D6): 13%; IC (TGI) (MB231; MB231, 48 hours exposure, SRB): 6.37 nM; CC50 (A498): 1.27 nM; GI50 (A498): 0.255 nM; IC (TGI) (A498): 0.51 nM; GI50 (DU145): 0.0255 nM; IC (TGI) (DU145): 0.0892 nM; CC50 (DU145): 3.82 nM; CC50 (MCF; 48 h): 11.5 nM; IC (TGI) (MCF; 48 h): 1.27 nM; GI50 (MCF; MCF, 48 hours exposure, SRB): 0.255 nM; GI50 (A549; [9]): 0.255 nM; IC (TGI) (A549; A549, 48 hours exposure, SRB): 0.892 nM; CC50 (A549): 6.37 nM; Papp A→B at 2 h, 50 μM (in vitro): < 1.18 ×10⁻⁶ cm/s
2 | COc1c(C)cc2c(c1O)[C@@H]1C3[C@@H]4SC[C@]5(NCCc6c5[nH]c5ccc(OCc7ccccc7)cc65)C(=O)COC[C@@H](c5c6c(c(C)c(OC(C)=O)c54)OCO6)N3[C@@H](O)[C@H](C2)N1C (stereo partly shown) [Compound 29] | > 4.9 | 1.94E−08 | 3.29E−07 | 1.59 (≈ 1.39 µg/mL) | 1.79E−08 | 55 | 1.59E−08 | 7.22E−08 | 9 | 23.2 | 69.7 | 105 | 105 | 69.7 | 23.2 | 23.2 | 34.8 | 81.3 | 116 | 23.2 | Cell Viability (% inhibition) ((HEPG2)): 29 % inhibition; inhibition at 450 min, 10 µM (CYP2D6): 27%; IC (TGI) (MB231; MB231, 48 hours exposure, SRB): 46.5 nM; CC50 (A498): 116 nM; GI50 (A498): 3.48 nM; IC (TGI) (A498): 11.6 nM; GI50 (DU145): 23.2 nM; IC (TGI) (DU145): 34.8 nM; CC50 (DU145): 92.9 nM; CC50 (MCF; 48 h): 116 nM; GI50 (MCF; MCF, 48 hours exposure, SRB): 23.2 nM; IC (TGI) (MCF; MCF, 48 hours exposure, SRB): 34.8 nM; GI50 (A549; [9]): 23.2 nM; IC (TGI) (A549; A549, 48 hours exposure, SRB): 34.8 nM; CC50 (A549): 92.9 nM
3 | COc1c(C)cc2c(c1O)[C@@H]1C3[C@@H]4SC[C@]5(NCCc6c5[nH]c5ccc(O)cc65)C(=O)COC[C@@H](c5c6c(c(C)c(OC(C)=O)c54)OCO6)N3[C@@H](O)[C@H](C2)N1C (stereo partly shown) [Compound 31] | 3.61 | 4.27E−08 | 1.35E−08 | 18.3 (≈ 14.3 µg/mL) | 3.18E−08 | 84 | 1.89E−08 | 6.65E−08 | 17 | 3.89 | 7.78 | 13 | 11.7 | 3.89 | 2.59 | 2.59 | 3.89 | 10.4 | 13 | 1.3 | Cell Viability (% inhibition) ((HEPG2)): 22 % inhibition; IC (TGI) (MB231; MB231, 48 hours exposure, SRB): 5.19 nM; CC50 (A498): 13 nM; GI50 (A498): 2.59 nM; IC (TGI) (A498): 6.49 nM; GI50 (DU145): 1.3 nM; IC (TGI) (DU145): 3.89 nM; CC50 (DU145): 9.08 nM; CC50 (MCF; 48 h): 11.7 nM; GI50 (MCF; MCF, 48 hours exposure, SRB): 2.59 nM; IC (TGI) (MCF; MCF, 48 hours exposure, SRB): 5.19 nM; GI50 (A549; [9]): 2.59 nM; IC (TGI) (A549; A549, 48 hours exposure, SRB): 5.19 nM; CC50 (A549): 38.9 nM; Papp A→B at 2 h, 50 μM (in vitro): < 0.32 ×10⁻⁶ cm/s
4 | COc1c(C)cc2c(c1O)[C@@H]1C3[C@@H]4SC[C@]5(NCCc6c5[nH]c5cc(F)ccc65)C(=O)COC[C@@H](c5c6c(c(C)c(OC(C)=O)c54)OCO6)N3[C@@H](O)[C@H](C2)N1C (stereo partly shown) [Compound 32] | > 4.3 | 1.45E−07 | 1.51E−08 | 14.3 (≈ 11.2 µg/mL) | 5.25E−07 | 83 | 6.00E−07 | 2.42E−07 | 9 | 7.76 | 25.9 | 103 | 129 | 25.9 | 5.17 | 2.59 | 10.3 | 25.9 | 90.6 | 2.59 | Cell Viability (% inhibition) ((HEPG2)): 39 % inhibition; inhibition at 450 min, 10 µM (CYP2D6): 12%; IC (TGI) (MB231; MB231, 48 hours exposure, SRB): 9.06 nM; CC50 (A498): 51.7 nM; GI50 (A498): 2.59 nM; IC (TGI) (A498): 9.06 nM; GI50 (DU145): 1.29 nM; IC (TGI) (DU145): 2.59 nM; CC50 (DU145): 3.88 nM; CC50 (MCF; 48 h): 129 nM; GI50 (MCF; MCF, 48 hours exposure, SRB): 9.06 nM; IC (TGI) (MCF; MCF, 48 hours exposure, SRB): 25.9 nM; GI50 (A549): 3.88 nM; IC (TGI) (A549; A549, 48 hours exposure, SRB): 25.9 nM; CC50 (A549): 90.6 nM
5 | COc1c(C)cc2c(c1O)[C@@H]1C3[C@@H]4SC[C@]5(C(=O)COC[C@@H](c6c7c(c(C)c(OC(C)=O)c64)OCO7)N3[C@@H](O)[C@H](C2)N1C)c1[nH]c2ccc(O)cc2c1CCN5C (stereo partly shown) [Compound 33] | 3.5 | 7.78E−09 | 1.41E−08 | 68.9 (≈ 55.1 µg/mL) | 1.92E−08 | 84 | 1.05E−08 | 1.27E−06 | 10 | 0.255 | 0.764 | 1.15 | 10.2 | 1.15 | 0.255 | 0.255 | 0.637 | 1.15 | 12.7 | 0.255 | Cell Viability (% inhibition) ((HEPG2)): 32 % inhibition; inhibition at 450 min, 10 µM (CYP2D6): 28%; IC (TGI) (MB231; 48 h): 1.27 nM; CC50 (A498): 1.27 nM; GI50 (A498): 0.255 nM; IC (TGI) (A498): 0.51 nM; GI50 (DU145): 0.382 nM; IC (TGI) (DU145): 0.892 nM; CC50 (DU145): 3.82 nM; CC50 (MCF; 48 h): 11.5 nM; GI50 (MCF; MCF, 48 hours exposure, SRB): 1.02 nM; IC (TGI) (MCF; MCF, 48 hours exposure, SRB): 2.55 nM; GI50 (A549; [9]): 0.382 nM; CC50 (A549): 5.1 nM; IC (TGI) (A549): 1.27 nM; Papp A→B at 2 h, 50 μM (in vitro): 7.77 ×10⁻⁶ cm/s
6 | CC(C)NCC(O)COc1cccc2ccccc12 (stereo not shown) [propranolol, reference compound] |  |  |  |  |  |  |  |  |  |  |  |  |  |  |  |  |  |  |  |  | Papp A→B at 2 h, 50 μM (in vitro): > 20 ×10⁻⁶ cm/s
7 | CNC(=C[N+](=O)[O-])NCCSCc1ccc(CN(C)C)o1 [ranitidine, reference compound] |  |  |  |  |  |  |  |  |  |  |  |  |  |  |  |  |  |  |  |  | Papp A→B at 2 h, 50 μM (in vitro): < 5 ×10⁻⁶ cm/s

Source: patent publication US7763615B2, “Ecteinascidin analogs for use as antitumour agents” (priority 2001, dated 2010)
